Data as given in patent publication US9783503B2, “Crystalline forms of an estrogen receptor modulator” (Genentech, Inc., priority 2014, dated 2017).
Entries after “also recorded” stand apart in the source; their conditions may differ. Counter-ions that a name gives are not always drawn. Blank lines part the entries; values can stand above or below the compound they belong to.

Columns and labels:
breast tumor cell = test: Breast tumor cell proliferation; assay type: cell-based
Oral bioavailability = conditions: in vivo
[1] = tested on: xenograft models of ER+ breast cancer; test: Tamoxifen-sensitive and tamoxifen-resistant xenograft models of ER+ breast cancer; assay type: in vivo
[2] = Gravimetric Vapor Sorption (GVS); assay type: physicochemical
Method: Sorption isotherms were obtained using a SMS DVS Intrinsic moisture sorption analyzer, controlled by DVS Intrinsic Control software v1.0.0.30. The sample temperature was maintained at 25° C. by the instrument controls. The humidity was controlled by mixing streams of dry and wet nitrogen, with a total flow rate of 200 mL/min. The relative humidity was measured by a calibrated Rotronic probe (dynamic range of 1.0-100% RH), located near the sample. The weight change, (mass relaxation) of the sample as a function of % RH was constantly monitored by the microbalance (accuracy+0.005 mg).
Typically 5-20 mg of sample was placed in a tared mesh stainless steel basket under ambient conditions. The sample was loaded and unloaded at 40% RH and 25° C. (typical room conditions). A moisture sorption isotherm was performed as outlined below (2 scans giving 1 complete cycle). The standard isotherm was performed at 25° C. at 10% RH intervals over a 0-90% RH range. Data analysis was undertaken in Microsoft Excel using DVS Analysis Suite v6.0.0.7.
The sample was recovered after completion of the isotherm and re-analyzed by XRPD.

[3] = Thermodynamic aqueous solubility; conditions: for solubility at 24 h: water, 25 °C, thermodynamic from solid
Method: The suspension was equilibrated at 25° C. for 24 hours then the pH was measured. The suspension was then filtered through a glass fibre C filter. […] Different volumes of the standard, diluted and undiluted sample solutions were injected.
Analysis was performed on an Agilent HP1100 series system equipped with a diode array detector and using ChemStation software vB.02.01-SR1.

[4] = Static storage stability at elevated humidity, checked by XRPD; assay type: physicochemical
From the text: X-Ray powder diffraction patterns were collected on a Bruker AXS C2 GADDS or a Bruker AXS D8 Advance diffractometer.

- oral bioavailability (Oral bioavailability): good oral bioavailability
Compound: CC/C(=C(/c1ccc(/C=C/C(=O)O)cc1)c1ccc2[nH]ncc2c1)c1ccc(F)cc1Cl [(E)-3-(4-((E)-2-(2-Chloro-4-fluorophenyl)-1-(1H-indazol-5-yl)but-1-en-1-yl)phenyl)acrylic acid]
- breast tumor cell proliferation (breast tumor cell): inhibition of breast tumor cell proliferation
- anti-tumor activity ([1]; both tamoxifen-sensitive and tamoxifen-resistant xenograft models): dose dependent anti-tumor activity
- ER-α tumor levels ([1]; tamoxifen-resistant xenograft models): reduction of ER-α tumor levels
- Efficacious doses ([1]; xenograft models of ER+ breast cancer): 1 to 100 mg/kg/day

- hysteresis of sorption isotherm ([2]; 0-90% RH, 25° C.): no hysteresis
- change of XRPD pattern after GVS analysis ([2]; after completion of the isotherm): No change in the XRPD pattern
- mass uptake ([2]; between 0-90% RH, 25° C.): ca. 4.75%
- pH of saturated aqueous solution ([3]; saturated aqueous solution, 25° C., 24 hours): about 5.45
- solubility at 24 h ([3]; pH 5.45, water, aqueous solubility, saturated aqueous solution, equilibrated at 25° C. for 24 hours): 15.8 mg/mL
- change by XRPD upon extended storage ([4]; extended storage in high humidity conditions at 40° C.): no visible change
Compound: CC/C(=C(/c1ccc(/C=C/C(=O)O)cc1)c1ccc2[nH]ncc2c1)c1ccc(F)cc1Cl [Form 1, (E)-3-(4-((E)-2-(2-chloro-4-fluorophenyl)-1-(1H-indazol-5-yl)but-1-en-1-yl)phenyl)acrylic acid, N-methyl glucamine salt]
- change of XRPD pattern after storage ([4]; 25° C. and 96% RH for 7 days): no visible change; also recorded: No difference in the XRPD patterns
- change of XRPD pattern after storage ([4]; 40° C. and 75% RH for 7 days): no visible change; also recorded: no difference in the XRPD patterns

- solubility at 24 h ([3]; Solubility, aqueous, crystalline salt prepared from MeCN (300 Vols)): 10.6 mg/mL
Compound: CC/C(=C(/c1ccc(/C=C/C(=O)O)cc1)c1ccc2[nH]ncc2c1)c1ccc(F)cc1Cl [N-Methylglucamine, (2S,3R,4R,5R)-2,3,4,5,6-pentahydroxy-N-methylhexan-1-aminium (E)-3-(4-((E)-2-(2-chloro-4-fluorophenyl)-1-(1H-indazol-5-yl)but-1-enyl)phenyl)acrylate]

- change of XRPD pattern after storage ([4]; 40° C. and 75% RH for 7 days): converted to Form 1
Compound: CC/C(=C(/c1ccc(/C=C/C(=O)O)cc1)c1ccc2[nH]ncc2c1)c1ccc(F)cc1Cl [Pattern 2, (E)-3-(4-((E)-2-(2-chloro-4-fluorophenyl)-1-(1H-indazol-5-yl)but-1-en-1-yl)phenyl)acrylic acid, N-methyl glucamine salt]

Compound: C[C@]12CC[C@@H]3c4ccc(O)cc4C[C@@H](CCCCCCCCC[S+]([O-])CCCC(F)(F)C(F)(F)F)[C@H]3[C@@H]1CC[C@@H]2O (stereo partly shown) [fulvestrant, reference compound]
- efficacy compared with the free acid ([1]; in some of these models): less efficacious
